Assays:
[1] = test system: PTHrp(1-34)-Induced Hypercalcemia in Rats; assay: Effect on PTHrp(1-34)-induced hypercalcemia in rats (p.o.); assay type: in vivo; conditions: male Wistar rats, 40 mg/kg p.o.; PTHrp(1-34) 5 nmole/kg i.v. four hours later; blood sample 1 hour after PTHrp; n = 5; PTHrp-only control 10.84 ± 0.11
Description: Some of the compounds shown in Table 1 were orally administered to 5-week-old male Wistar rats weighing from […] to 110 g (5 animals per group) at a dose of 40 mg/kg body weight. Four hours later, 5 nmole/kg of PTHrp(1-34) was intravenously injected into the animals. One hour after the administration of PTHrp(1-34)sequence ID No. 1, a blood sample was collected from each rat, and the blood calcium concentration was determined by the octocresolphthalein complexone method.

[2] = test system: PTHrp(1-34)-Induced Hypercalcemia in Rats; assay: Effect on PTHrp(1-34)-induced hypercalcemia in rats (i.p.); assay type: in vivo; conditions: male Wistar rats, 40 mg/kg i.p.; PTHrp(1-34) 5 nmole/kg i.v. two hours later; blood sample 1 hour after PTHrp; n = 5; PTHrp-only control 10.79 ± 0.13
Description: Some of the compounds shown in Table 1 were intraperitoneally administered to 5-week-old male Wistar rats each weighing 90 to 110 g (5 animals per group) at a dose of 40 mg/kg body weight. Two hours later, 5 nmole/kg of PTHrp(1-34) was intravenously injected. One hour after the administration of PTHrp(1-34), a blood sample was collected from each animal, and the blood calcium concentration was determined according to the same method as in Test Example 1.

Row | Compound | Ca Conc. ± S.E. (average blood calcium concentration) [1] | Ca Conc. ± S.E. (average blood calcium concentration) [2]
1 | CCCCC(NC(=O)[C@H](CC(C)C)NC(C)=O)C1NCCS1 (stereo partly drawn) [Example 21, N-Acetyl-L-leucine-[1-(thiazolidine-2-yl)]pentylamide] | 9.98 ± 0.10 mg/dL | 9.96 ± 0.07 mg/dL
2 | CCCCC(NC(=O)[C@H](CC(C)C)NC(=O)OCc1ccccc1)C(OC(C)=O)OC(C)=O (stereo partly drawn) [Example 12, N-Benzyloxycarbonyl-L-leucine-(1-diacetoxymethyl)pentylamide] |  | 10.27 ± 0.08 mg/dL
3 | CCCCC(NC(=O)[C@H](CC(C)C)NC(=O)OCc1ccccc1)C(=O)C(=O)OCC (stereo partly drawn) [Example 1, N-Benzyloxycarbonyl-L-leueine-(1-ethoxalyl)pentylamide] |  | 10.33 ± 0.12 mg/dL
4 | CCCCC(NC(=O)[C@H](CC(C)C)NC(=O)C(F)(F)F)C(OC)OC (stereo partly drawn) [Example 27, N-Trifluoroacetyl-L-leucine-(1-dimethoxymethyl)pentylamide] | 9.91 ± 0.13 mg/dL | 
5 | CCCCC(NC(=O)[C@H](CC(C)C)NC(=O)CC)C(OC)OC (stereo partly drawn) [Example 25, N-Propionyl-L-leucine-(1-dimethoxymethyl)pentylamide] | 9.88 ± 0.09 mg/dL | 
6 | CCCCC(NC(=O)[C@H](CC(C)C)NC(C)=O)C1OCCO1 (stereo partly drawn) [Example 17, N-Acetyl-L-leucine-[1-(1,3-dioxolan-2-yl)]pentylamide] | 9.97 ± 0.17 mg/dL | 10.16 ± 0.05 mg/dL
7 | CCCCC(NC(=O)[C@H](CC(C)C)NC(C)=O)C(OCC)OCC (stereo partly drawn) [Example 22, N-Acetyl-L-leucine-(1-diethoxymethyl)pentylamide] | 10.05 ± 0.13 mg/dL | 9.67 ± 0.18 mg/dL
8 | CCCCC(NC(=O)[C@H](CC(C)C)NC(=O)CCC)C(OC)OC (stereo partly drawn) [Example 26, N-Butyryl-L-leucine-(1-dimethoxymethyl)pentylamide] | 9.85 ± 0.08 mg/dL | 
9 | CCCCC(NC(=O)[C@H](CC(C)C)NC(=O)C(C)C)C(OC)OC (stereo partly drawn) [Example 23, N-Isobutyryl-L-leucine-(1-dimethoxymethyl)pentylamide] | 9.83 ± 0.13 mg/dL | 
10 | CCCCC(NC(=O)[C@H](CC(C)C)NC(=O)OCc1ccccc1)C1OCCO1 (stereo partly shown) [Example 9] | 10.41 ± 0.08 mg/dL | 
11 | CCCCC(NC(=O)[C@H](CC(C)C)NC(=O)OCc1ccccc1)C1SCCS1 (stereo partly drawn) [Example 13, N-Benzyloxycarbonyl-L-leucine-[1-(1,3-dithiolan-2-yl)]pentylamide] |  | 10.23 ± 0.05 mg/dL
12 | CCCCC(NC(=O)[C@H](CC(C)C)NC(=O)OCc1ccccc1)C1NCCS1 (stereo partly drawn) [Example 15, N-Benzyloxycarbonyl-L-leucine-[1-(thiazolidine-2-yl)]pentylamide] | 9.98 ± 0.13 mg/dL | 10.13 ± 0.21 mg/dL
13 | CCCCC(NC(=O)[C@H](CC(C)C)NC(C)=O)C(OC)OC (stereo partly drawn) [Example 16, N-Acetyl-L-leucine-(1-dimethoxymethyl)pentylamide] | 9.91 ± 0.13 mg/dL | 9.95 ± 0.14 mg/dL
14 | CCCCC(NC(=O)[C@H](CC(C)C)NC(=O)CCl)C(OC)OC (stereo partly drawn) [Example 24, N-Chloroacetyl-L-leucine-(1-dimethoxymethyl)pentylamide] | 10.12 ± 0.09 mg/dL | 
15 | CCCCC(NC(=O)[C@H](CC(C)C)NC(=O)OCc1ccccc1)C(OC)OC (stereo partly drawn) [Example 7, N-Benzyloxycarbonyl-L-leucine-(1-dimethoxymethyl)pentylamide] | 10.36 ± 0.11 mg/dL | 10.29 ± 0.14 mg/dL
16 | CC(C)CC(C=O)NC(=O)[C@H](CC(C)C)NC(=O)OCc1ccccc1 (stereo partly drawn) [Example 33, N-Benzyloxycarbonyl-L-leucine-(1-formyl-3-methyl)butylamide] | 10.26 ± 0.13 mg/dL | 

— patent US5395824A, “Dipeptide derivative and prophylactic and therapeutic agent for bone diseases containing the same” (Suntory Limited, priority 1991, dated 1995)
